Here are results for seven molecules from publication doi:10.1101/2024.06.17.599194v1 (biorxiv, 2024).

What is called IC50 is the concentration that gives 50% inhibition. Higher therefore signals weaker potency in that assay. Broadly, the Km is the concentration of substrate that gives half-maximal velocity.

The target in data set [1] is T1, A. baumannii IspE (AbIspE) (Acinetobacter baumannii, UniProt B2HUM5).
T1 sequence (B2HUM5 1-277): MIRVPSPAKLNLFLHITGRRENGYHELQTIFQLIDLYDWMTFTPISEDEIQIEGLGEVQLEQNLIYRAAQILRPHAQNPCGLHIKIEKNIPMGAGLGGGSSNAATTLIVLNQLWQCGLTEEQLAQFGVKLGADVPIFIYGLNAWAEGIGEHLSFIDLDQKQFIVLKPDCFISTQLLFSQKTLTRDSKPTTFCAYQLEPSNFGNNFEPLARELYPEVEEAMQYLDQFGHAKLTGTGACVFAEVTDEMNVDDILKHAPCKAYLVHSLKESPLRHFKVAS
The data set is described as follows: coupled spectrophotometric assay, dose-response. The format is biochemical.

Data set [2] concerns the target T2, E. coli IspE (EcIspE) (Escherichia coli, UniProt P62615).
T2 sequence (P62615 1-283): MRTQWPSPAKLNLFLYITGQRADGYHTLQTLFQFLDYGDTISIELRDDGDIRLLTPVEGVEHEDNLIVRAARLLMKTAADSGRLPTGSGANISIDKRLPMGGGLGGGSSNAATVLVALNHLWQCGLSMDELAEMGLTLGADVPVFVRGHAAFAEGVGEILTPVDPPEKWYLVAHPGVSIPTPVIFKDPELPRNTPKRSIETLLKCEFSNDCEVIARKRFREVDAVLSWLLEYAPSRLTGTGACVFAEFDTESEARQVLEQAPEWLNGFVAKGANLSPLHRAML
Put plainly: coupled spectrophotometric assay, dose-response. The format is biochemical.

For data set [3], the target named is T3, K. pneumoniae IspE (KpIspE) (Klebsiella pneumoniae, UniProt A6TAP2).
T3 sequence (A6TAP2 1-283): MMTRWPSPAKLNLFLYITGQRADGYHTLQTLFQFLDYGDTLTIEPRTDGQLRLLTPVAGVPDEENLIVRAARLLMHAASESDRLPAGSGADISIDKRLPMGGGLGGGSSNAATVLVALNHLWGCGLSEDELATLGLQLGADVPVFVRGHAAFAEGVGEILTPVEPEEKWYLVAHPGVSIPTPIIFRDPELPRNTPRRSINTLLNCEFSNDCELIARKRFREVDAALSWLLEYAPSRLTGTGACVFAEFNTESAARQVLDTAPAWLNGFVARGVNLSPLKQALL
The data set is described as follows: coupled spectrophotometric assay, dose-response. In kind it is biochemical.

Substrate in data set [4]: C[C@](O)(CO)[C@H](O)COP(=O)(O)OP(=O)(O)OC[C@H]1O[C@@H](n2ccc(N)nc2=O)[C@H](O)[C@@H]1O
The data set is described as follows: purified protein. As to conditions: room temperature; ATP 1 mM.

Substrate in data set [5]: Nc1ncnc2c1ncn2[C@@H]1O[C@H](COP(=O)(O)OP(=O)(O)OP(=O)(O)O)[C@@H](O)[C@H]1O
The data set is described as follows: purified protein. The note with it: room temperature; CDP-ME 2 mM.

As to `Nc1nc(=O)n(C2CCCS2)cc1C#CCNS(=O)(=O)C1CC1` (racemic) [compound 1, (±)-1], the IC50 in data set [1] turned out to be 20 ± 3 µM; in data set [2] it was 13 ± 2.9 µM; in data set [3] it was 8 ± 1.5 µM.

With `Nc1nc(=O)[nH]cc1C#CCNS(=O)(=O)C1CC1` [compound 2, 2], the IC50 in data set [2] worked out at 36.5 ± 1.6 µM; in data set [3], 44.3 ± 4.9 µM.

For `Nc1nc(=O)[nH]cc1C#CCNS(=O)(=O)C1CCCC1` [compound 3, 3], the IC50 in data set [2] was 10.3 ± 0.7 µM; in data set [3] it was 11.3 ± 0.6 µM.

Consider `Nc1nc(=O)[nH]cc1C#CCNS(=O)(=O)C1CCCCC1` [compound 4, 4], for which the IC50 in data set [2] came out at 6.2 ± 3.19 µM; in data set [3], 5.2 ± 1.3 µM.

B1: K. pneumoniae IspE (KpIspE) (Klebsiella pneumoniae subsp. pneumoniae MGH 78578) (protein)
chain: T3 sequence (A6TAP2 1-283)
As for B1, the values for the Km in data set [4] and in data set [5] were 170 µM and 348 µM, respectively.

B2: A. baumannii IspE (AbIspE) (Acinetobacter baumannii ACICU) (protein)
chain: T1 sequence (B2HUM5 1-277)
B2: the Km in data set [4] is 358 µM; in data set [5] it was 474 µM.

B3: E. coli IspE (EcIspE) (Escherichia coli K-12) (protein)
chain: T2 sequence (P62615 1-283)
With B3, the Km in data set [4] is 200 µM; in data set [5] it was 420 µM.
